Reference: ChEMBL document CHEMBL3991601, “The target landscape of clinical kinase drugs” (Science, 2017)
Active and inactive are the calls of the source.

How the values were obtained:
[1] = target: T1, Bifunctional phosphoribosylaminoimidazole carboxylase/phosphoribosylaminoimidazole succinocarboxamide synthetase (Homo sapiens, UniProt P22234)
T1 sequence (P22234 whole entry): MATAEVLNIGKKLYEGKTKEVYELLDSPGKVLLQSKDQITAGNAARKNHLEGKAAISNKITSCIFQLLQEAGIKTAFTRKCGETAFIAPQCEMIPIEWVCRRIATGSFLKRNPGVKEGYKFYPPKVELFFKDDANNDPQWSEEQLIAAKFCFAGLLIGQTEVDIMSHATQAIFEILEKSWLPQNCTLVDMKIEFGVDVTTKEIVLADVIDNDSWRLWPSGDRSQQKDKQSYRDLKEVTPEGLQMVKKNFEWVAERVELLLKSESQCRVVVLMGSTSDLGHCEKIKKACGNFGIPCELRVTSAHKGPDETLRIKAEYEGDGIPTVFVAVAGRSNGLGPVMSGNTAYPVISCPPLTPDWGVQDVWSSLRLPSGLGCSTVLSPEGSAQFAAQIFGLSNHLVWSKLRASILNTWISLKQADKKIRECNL

[2] = target: T2, Ras-related protein Rab-10 (Homo sapiens, UniProt P61026)
T2 sequence (P61026 whole entry): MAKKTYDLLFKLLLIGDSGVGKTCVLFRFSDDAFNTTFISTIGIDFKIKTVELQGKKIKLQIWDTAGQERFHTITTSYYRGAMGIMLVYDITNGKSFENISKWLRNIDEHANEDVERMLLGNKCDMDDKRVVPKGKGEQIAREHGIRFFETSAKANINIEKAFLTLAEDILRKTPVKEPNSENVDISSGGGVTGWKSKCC

[3] = target: T3, Ephrin type-B receptor 3 (Homo sapiens, UniProt P54753)
T3 sequence (P54753 whole entry): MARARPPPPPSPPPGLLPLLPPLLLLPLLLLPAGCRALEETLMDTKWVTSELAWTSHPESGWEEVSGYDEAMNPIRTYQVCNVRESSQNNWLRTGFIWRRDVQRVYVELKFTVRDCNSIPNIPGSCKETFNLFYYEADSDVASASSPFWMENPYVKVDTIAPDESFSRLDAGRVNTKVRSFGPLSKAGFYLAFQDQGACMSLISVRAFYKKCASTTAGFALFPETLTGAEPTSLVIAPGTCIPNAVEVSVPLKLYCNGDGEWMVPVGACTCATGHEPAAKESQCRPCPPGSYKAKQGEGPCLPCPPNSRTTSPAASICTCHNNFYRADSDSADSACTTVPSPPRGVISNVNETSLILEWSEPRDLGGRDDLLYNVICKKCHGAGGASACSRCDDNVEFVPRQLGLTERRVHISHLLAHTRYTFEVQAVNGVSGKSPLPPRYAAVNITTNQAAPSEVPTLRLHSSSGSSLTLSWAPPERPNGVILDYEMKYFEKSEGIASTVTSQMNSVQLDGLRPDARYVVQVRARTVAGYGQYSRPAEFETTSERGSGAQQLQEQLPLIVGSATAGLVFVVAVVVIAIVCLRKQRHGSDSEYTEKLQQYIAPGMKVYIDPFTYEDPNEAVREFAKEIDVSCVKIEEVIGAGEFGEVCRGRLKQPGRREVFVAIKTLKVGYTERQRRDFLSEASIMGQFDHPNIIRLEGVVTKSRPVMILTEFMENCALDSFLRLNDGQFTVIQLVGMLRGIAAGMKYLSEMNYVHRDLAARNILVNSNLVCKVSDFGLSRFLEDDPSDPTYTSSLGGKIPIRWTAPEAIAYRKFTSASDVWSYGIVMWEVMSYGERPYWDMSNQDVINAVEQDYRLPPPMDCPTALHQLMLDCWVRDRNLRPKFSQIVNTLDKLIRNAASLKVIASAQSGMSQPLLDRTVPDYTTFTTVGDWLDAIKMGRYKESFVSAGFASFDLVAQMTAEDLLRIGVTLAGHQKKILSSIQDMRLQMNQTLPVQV

[4] = target: Structural maintenance of chromosomes protein 2 (Homo sapiens, UniProt O95347)
[5] = target: RAC-gamma serine/threonine-protein kinase (Homo sapiens, UniProt Q9Y243)
[6] = target: T4, Dual specificity mitogen-activated protein kinase kinase 3 (Homo sapiens, UniProt P46734)
T4 sequence (P46734 whole entry): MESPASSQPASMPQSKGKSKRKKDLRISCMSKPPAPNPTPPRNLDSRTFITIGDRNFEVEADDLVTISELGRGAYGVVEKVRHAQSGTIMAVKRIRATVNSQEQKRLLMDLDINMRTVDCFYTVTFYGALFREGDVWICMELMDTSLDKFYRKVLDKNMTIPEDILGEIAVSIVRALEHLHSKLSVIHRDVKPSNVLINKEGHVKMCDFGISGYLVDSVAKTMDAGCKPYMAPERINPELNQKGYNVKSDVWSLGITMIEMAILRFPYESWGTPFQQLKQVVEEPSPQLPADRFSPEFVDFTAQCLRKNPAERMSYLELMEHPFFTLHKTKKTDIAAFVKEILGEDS

[7] = target: Ribosomal protein S6 kinase beta-1 (Homo sapiens, UniProt P23443)
[8] = target: T5, Phosphatidylinositol 5-phosphate 4-kinase type-2 gamma (Homo sapiens, UniProt Q8TBX8)
T5 sequence (Q8TBX8 whole entry): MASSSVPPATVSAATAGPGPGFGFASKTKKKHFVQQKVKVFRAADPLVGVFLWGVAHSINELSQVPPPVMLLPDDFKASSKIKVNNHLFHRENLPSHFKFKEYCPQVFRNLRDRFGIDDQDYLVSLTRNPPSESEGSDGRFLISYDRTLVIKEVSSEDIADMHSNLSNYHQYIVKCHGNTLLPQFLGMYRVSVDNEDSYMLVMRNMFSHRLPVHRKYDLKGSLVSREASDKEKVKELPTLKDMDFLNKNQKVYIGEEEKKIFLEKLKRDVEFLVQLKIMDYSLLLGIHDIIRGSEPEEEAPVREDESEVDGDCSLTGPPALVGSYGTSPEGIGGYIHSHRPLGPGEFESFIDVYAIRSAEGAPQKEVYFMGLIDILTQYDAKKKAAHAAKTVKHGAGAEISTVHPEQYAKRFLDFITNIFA

[9] = target: Serine/threonine-protein kinase B-raf (Homo sapiens, UniProt P15056)

Measured: Kd
Also: in the data inactive means no Kd found up to 30 µM.

Chain of Serine/threonine-protein kinase B-raf (P15056 whole entry): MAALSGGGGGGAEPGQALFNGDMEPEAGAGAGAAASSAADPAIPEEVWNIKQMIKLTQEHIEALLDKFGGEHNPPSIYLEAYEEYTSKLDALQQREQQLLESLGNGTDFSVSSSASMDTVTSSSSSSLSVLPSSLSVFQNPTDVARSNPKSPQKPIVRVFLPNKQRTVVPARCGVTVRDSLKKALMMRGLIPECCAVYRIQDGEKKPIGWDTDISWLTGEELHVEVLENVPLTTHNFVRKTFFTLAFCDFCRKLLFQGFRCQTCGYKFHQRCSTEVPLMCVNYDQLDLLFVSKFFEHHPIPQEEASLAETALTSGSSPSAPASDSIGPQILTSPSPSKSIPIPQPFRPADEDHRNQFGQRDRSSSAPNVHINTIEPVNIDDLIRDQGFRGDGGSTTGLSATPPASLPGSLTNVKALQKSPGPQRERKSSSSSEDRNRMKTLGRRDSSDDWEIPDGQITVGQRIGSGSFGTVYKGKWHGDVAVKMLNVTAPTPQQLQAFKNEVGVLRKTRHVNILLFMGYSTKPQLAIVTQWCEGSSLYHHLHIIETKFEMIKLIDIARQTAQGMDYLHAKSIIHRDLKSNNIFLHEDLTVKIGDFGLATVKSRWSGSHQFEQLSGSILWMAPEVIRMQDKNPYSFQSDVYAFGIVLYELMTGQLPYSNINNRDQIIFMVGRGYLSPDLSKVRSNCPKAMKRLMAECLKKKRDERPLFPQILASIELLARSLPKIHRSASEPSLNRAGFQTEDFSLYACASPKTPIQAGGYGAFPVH
Chain of Structural maintenance of chromosomes protein 2 (O95347 whole entry): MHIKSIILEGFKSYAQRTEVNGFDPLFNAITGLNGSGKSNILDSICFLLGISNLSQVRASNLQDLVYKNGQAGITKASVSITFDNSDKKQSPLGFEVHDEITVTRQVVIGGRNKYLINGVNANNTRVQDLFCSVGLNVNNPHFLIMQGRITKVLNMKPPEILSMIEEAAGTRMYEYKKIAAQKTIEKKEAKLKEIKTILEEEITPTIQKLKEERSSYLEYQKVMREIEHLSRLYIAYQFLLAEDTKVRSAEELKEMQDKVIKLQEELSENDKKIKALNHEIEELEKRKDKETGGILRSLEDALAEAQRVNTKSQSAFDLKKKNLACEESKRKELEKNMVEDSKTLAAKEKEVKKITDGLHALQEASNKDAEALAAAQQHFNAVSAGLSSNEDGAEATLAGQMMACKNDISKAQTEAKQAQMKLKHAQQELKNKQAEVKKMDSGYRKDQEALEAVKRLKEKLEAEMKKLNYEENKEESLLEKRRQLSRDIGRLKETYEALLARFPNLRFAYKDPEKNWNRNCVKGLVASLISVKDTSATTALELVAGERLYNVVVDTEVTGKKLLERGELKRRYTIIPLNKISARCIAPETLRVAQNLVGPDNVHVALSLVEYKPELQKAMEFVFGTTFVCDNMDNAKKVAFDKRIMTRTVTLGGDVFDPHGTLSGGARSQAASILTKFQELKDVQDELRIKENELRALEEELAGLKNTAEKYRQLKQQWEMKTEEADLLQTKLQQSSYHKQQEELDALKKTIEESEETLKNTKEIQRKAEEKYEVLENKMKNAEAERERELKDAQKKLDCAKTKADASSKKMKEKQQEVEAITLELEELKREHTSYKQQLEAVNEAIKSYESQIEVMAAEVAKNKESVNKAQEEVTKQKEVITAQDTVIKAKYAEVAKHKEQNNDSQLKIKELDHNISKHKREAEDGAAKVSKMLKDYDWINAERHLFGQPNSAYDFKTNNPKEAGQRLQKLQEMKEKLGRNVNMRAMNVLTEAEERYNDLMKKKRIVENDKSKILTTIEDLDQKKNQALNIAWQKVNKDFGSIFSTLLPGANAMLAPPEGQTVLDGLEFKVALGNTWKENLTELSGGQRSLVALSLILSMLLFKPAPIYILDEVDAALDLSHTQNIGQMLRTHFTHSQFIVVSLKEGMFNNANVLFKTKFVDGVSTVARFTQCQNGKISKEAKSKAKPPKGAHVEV
Chain of RAC-gamma serine/threonine-protein kinase (Q9Y243 whole entry): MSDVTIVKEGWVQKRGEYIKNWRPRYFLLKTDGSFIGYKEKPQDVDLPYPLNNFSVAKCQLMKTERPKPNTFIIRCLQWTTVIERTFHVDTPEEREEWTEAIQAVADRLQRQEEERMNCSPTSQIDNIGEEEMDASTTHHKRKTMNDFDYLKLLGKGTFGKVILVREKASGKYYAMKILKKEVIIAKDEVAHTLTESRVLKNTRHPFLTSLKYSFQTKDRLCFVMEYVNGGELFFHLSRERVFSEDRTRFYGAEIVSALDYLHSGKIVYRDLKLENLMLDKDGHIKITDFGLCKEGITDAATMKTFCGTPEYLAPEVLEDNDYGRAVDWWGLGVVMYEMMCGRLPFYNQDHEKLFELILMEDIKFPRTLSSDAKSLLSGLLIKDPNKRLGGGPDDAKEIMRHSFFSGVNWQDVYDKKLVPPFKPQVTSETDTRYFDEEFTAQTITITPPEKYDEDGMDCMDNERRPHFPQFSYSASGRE
Chain of Ribosomal protein S6 kinase beta-1 (P23443 whole entry): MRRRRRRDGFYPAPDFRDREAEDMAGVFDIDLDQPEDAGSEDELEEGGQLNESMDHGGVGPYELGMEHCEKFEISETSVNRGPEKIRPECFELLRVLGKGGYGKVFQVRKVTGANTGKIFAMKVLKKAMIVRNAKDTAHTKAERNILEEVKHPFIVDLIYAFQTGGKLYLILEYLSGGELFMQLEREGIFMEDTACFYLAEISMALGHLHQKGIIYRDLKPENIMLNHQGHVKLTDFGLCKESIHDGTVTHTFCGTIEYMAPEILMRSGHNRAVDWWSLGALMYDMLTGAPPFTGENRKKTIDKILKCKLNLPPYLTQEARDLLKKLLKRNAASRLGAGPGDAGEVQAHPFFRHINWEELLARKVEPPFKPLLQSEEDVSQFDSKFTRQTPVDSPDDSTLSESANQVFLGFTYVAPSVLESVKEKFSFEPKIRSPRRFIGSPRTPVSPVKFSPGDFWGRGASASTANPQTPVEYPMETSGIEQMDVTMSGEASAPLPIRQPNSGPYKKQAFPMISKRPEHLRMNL

Cn1cc(-c2cnn3c(N)c(Br)c([C@@H]4CCCNC4)nc23)cn1 [SCH-900776]
inactive: [1] > 30 µM | [2] > 30 µM | [3] > 30 µM | [4] > 30 µM | [5] > 30 µM | [6] > 30 µM | [7] > 30 µM | [8] > 30 µM | [9] > 30 µM

CO[C@H]1C[C@@H]2CC[C@@H](C)[C@@](O)(O2)C(=O)C(=O)N2CCCC[C@H]2C(=O)O[C@H]([C@H](C)C[C@@H]2CC[C@@H](O)[C@H](OC)C2)CC(=O)[C@H](C)/C=C(\C)[C@@H](O)[C@@H](OC)C(=O)[C@H](C)C[C@H](C)/C=C/C=C/C=C/1C [SIROLIMUS]
inactive: [1] > 30 µM | [2] > 30 µM | [3] > 30 µM | [4] > 30 µM | [5] > 30 µM | [6] > 30 µM | [7] > 30 µM | [8] > 30 µM | [9] > 30 µM

CO[C@H]1C[C@@H]2CC[C@@H](C)[C@@](O)(O2)C(=O)C(=O)N2CCCC[C@H]2C(=O)O[C@H]([C@H](C)C[C@@H]2CC[C@@H](OC(=O)C(C)(CO)CO)[C@H](OC)C2)CC(=O)[C@H](C)/C=C(\C)[C@@H](O)[C@@H](OC)C(=O)[C@H](C)C[C@H](C)/C=C/C=C/C=C/1C [TEMSIROLIMUS]
inactive: [1] > 30 µM | [2] > 30 µM | [3] > 30 µM | [4] > 30 µM | [5] > 30 µM | [6] > 30 µM | [7] > 30 µM | [8] > 30 µM | [9] > 30 µM

O=C(Cc1ccc(-c2ccc(OCCN3CCOCC3)cc2)cn1)NCc1ccccc1 [TIRBANIBULIN]
inactive: [1] > 30 µM | [2] > 30 µM | [3] > 30 µM | [4] > 30 µM | [5] > 30 µM | [6] > 30 µM | [7] > 30 µM | [8] > 30 µM | [9] > 30 µM

O=C1NC(=O)[C@@H](c2cn3c4c(cccc24)CCC3)[C@@H]1c1c[nH]c2ccccc12 [TIVANTINIB]
inactive: [1] > 30 µM | [2] > 30 µM | [3] > 30 µM | [4] > 30 µM | [5] > 30 µM | [6] > 30 µM | [7] > 30 µM | [8] > 30 µM | [9] > 30 µM

CC(C)c1cc(CNc2nc(Nc3cc(C4CC4)[nH]n3)cc(N3CCN(C)CC3)n2)on1 [XL-228]
inactive: [1] > 30 µM | [2] > 30 µM | [3] > 30 µM | [4] > 30 µM | [5] > 30 µM | [6] > 30 µM | [7] > 30 µM | [8] > 30 µM | [9] > 30 µM

CN1C/C=C/CCOc2cccc(c2)-c2ccnc(n2)Nc2cccc(c2)C1 [ZOTIRACICLIB]
inactive: [1] > 30 µM | [2] > 30 µM | [3] > 30 µM | [4] > 30 µM | [5] > 30 µM | [6] > 30 µM | [7] > 30 µM | [8] > 30 µM | [9] > 30 µM
